# Reference: paper PMC10178091, “The GRPR Antagonist [^99mTc]Tc-maSSS-PEG2-RM26 towards Phase I Clinical Trial: Kit Preparation, Characterization and Toxicity” (Diagnostics, 2023)
# Where two headings read alike, the source gives them in different places. Where a SMILES comes first, the peptide text is derived from it. [ ]: non-standard residue; d: D form. The star is where a group is joined. Sta = CC(C)C[C@H](N)[C@@H](O)CC(=O)O; Mercaptoacetyl = O=C(CS)*; AEEA = NCCOCCOCC(=O)O
# Columns and labels:
# [1] = Ex vivo biodistribution / in vivo GRPR targeting in PC-3 tumor-bearing mice; design: species or system Balb/c nu/nu mice; conditions: mouse, total radioactivity, 1 h pi, n = 4; for tissue to tissue ratio at 1 h: 40 pmol, ± SD
# Description: (§1) Randomly selected vials were stored at 4 °C at our laboratory for long-term testing. Within 18 months of storage, the vials were radiolabeled under the same conditions mentioned earlier. Additionally, the GRPR-binding in vitro was tested on a different batch of PC-3 cells, following the same protocol mentioned earlier. The in vivo GRPR-targeting properties of [^99mTc]Tc-maSSS-PEG2-RM26 were tested on PC-3 tumor-bearing Balb/c nu/nu mice (the cells (6 × 10^6 cells/mouse) were inoculated into the mice 4 weeks prior to the experiment). On the day of the experiment, when palpable tumors developed, a group of mice (n = 4) was injected with [^99mTc]Tc-maSSS-PEG2-RM26 (30 kBq/40 pmol) and another group (n = 4) was additionally co-injected with NOTA-PEG2-RM26 (5 nmol) to block GRPR. The mice were euthanized 1 h post-injection and the organs of interest were collected, weighed, and measured for their radioactivity content.
# GRPR [2] = target: T1, GRPR (Homo sapiens, UniProt P30550); experiment: as above; design: species or system Balb/c nu/nu mice; conditions: 1 h pi, kit stored 18 months, p < 0.001, n = 4
# T1 construct: endogenous in cells; host or cells: PC-3 xenograft tumours in Balb/c nu/nu mice
# Description: as §1
# GRPR [3] = experiment: as above; design: species or system Balb/c nu/nu mice; conditions: 1 h pi, kit stored 18 months, p < 0.001, n = 4
# Description: as §1
# GRPR on PC-3 cells = target: T2, GRPR on PC-3 cells (Homo sapiens, UniProt P30550); experiment: In vitro binding specificity assay on PC-3 cells, with and without pre-blocking; conditions: 1 nM
# T2 construct: endogenous in cells; host or cells: PC-3 cells
# Description: The radiolabeled peptide binding to GRPR was tested in PC-3 cells (GRPR +) by the addition of 1 nM of [^99mTc]Tc-maSSS-PEG2-RM26 to the cells (~10^6 cells, in triplicates), with and without pre-blocking of receptors, by the addition of 1 µM of NOTA-PEG2-RM26 (10 min at room temperature). After incubation at 37 °C for 1 h, the cells were treated with trypsin-EDTA, collected, and measured for their radioactivity content.
# as §1
# GRPR [4] = target: GRPR; design: method as in PMID 33573232; conditions: cited from earlier work
# [5] = design: method as in PMID 36980517; conditions: phase I clinical study; cited from earlier work
# T2 sequence (P30550 whole entry): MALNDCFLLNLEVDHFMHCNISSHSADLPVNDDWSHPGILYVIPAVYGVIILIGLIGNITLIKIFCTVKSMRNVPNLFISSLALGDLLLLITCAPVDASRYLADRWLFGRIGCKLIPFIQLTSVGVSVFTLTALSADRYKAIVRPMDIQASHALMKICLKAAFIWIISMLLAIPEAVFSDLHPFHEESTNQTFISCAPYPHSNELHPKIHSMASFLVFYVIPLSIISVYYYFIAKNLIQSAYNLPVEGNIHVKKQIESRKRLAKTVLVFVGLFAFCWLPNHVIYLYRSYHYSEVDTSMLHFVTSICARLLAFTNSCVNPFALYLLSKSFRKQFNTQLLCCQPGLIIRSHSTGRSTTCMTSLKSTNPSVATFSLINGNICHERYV
# T1 sequence (P30550 whole entry): as above
smiles,measurement,setting,value
"CC(C)C[C@H](NC(=O)C[C@H](O)[C@H](CC(C)C)NC(=O)[C@H](Cc1c[nH]cn1)NC(=O)CNC(=O)[C@@H](NC(=O)[C@H](C)NC(=O)[C@H](Cc1c[nH]c2ccccc12)NC(=O)[C@H](CCC(N)=O)NC(=O)[C@@H](Cc1ccccc1)NC(=O)COCCOCCNC(=O)[C@H](CO)NC(=O)[C@H](CO)NC(=O)[C@H](CO)NC(=O)CS)C(C)C)C(N)=O [[^99mTc]Tc-maSSS-PEG2-RM26, metal not drawn] (Mercaptoacetyl-SSS[AEEA][dF]QWAVGH[Sta]L-NH2)",tissue uptake at 1 h,"[1]; Balb/c nu/nu, blood, PC-3 xenografts, 40 pmol / 30 kBq co-injected with 5 nmol NOTA-PEG2-RM26, average ± SD, read-out: Uptake in blood, blocked",0.3 ± 0.4 %ID/g
same,tissue uptake at 1 h,"[1]; Balb/c nu/nu, bone, PC-3 xenografts, 40 pmol / 30 kBq co-injected with 5 nmol NOTA-PEG2-RM26, average ± SD, read-out: Uptake in bone, blocked",0.042 ± 0.009 %ID/g
same,tissue uptake at 1 h,"[1]; Balb/c nu/nu, kidneys, PC-3 xenografts, 40 pmol / 30 kBq co-injected with 5 nmol NOTA-PEG2-RM26, average ± SD, read-out: Uptake in kidneys, blocked",5 ± 0.6 %ID/g
same,tissue uptake at 1 h,"[1]; Balb/c nu/nu, liver, PC-3 xenografts, 40 pmol / 30 kBq co-injected with 5 nmol NOTA-PEG2-RM26, average ± SD, read-out: Uptake in liver, blocked",1.7 ± 0.4 %ID/g
same,tissue uptake at 1 h,"[1]; Balb/c nu/nu, muscle, PC-3 xenografts, 40 pmol / 30 kBq co-injected with 5 nmol NOTA-PEG2-RM26, average ± SD, read-out: Uptake in muscle, blocked",0.032 ± 0.008 %ID/g
same,tissue uptake at 1 h,"[1]; Balb/c nu/nu, pancreas, PC-3 xenografts, 40 pmol / 30 kBq co-injected with 5 nmol NOTA-PEG2-RM26, average ± SD, read-out: Uptake in pancreas, blocked",1.4 ± 0.1 %ID/g
same,tissue uptake at 1 h,"[1]; Balb/c nu/nu, spleen, PC-3 xenografts, 40 pmol / 30 kBq co-injected with 5 nmol NOTA-PEG2-RM26, average ± SD, read-out: Uptake in spleen, blocked",0.13 ± 0.06 %ID/g
same,tissue to tissue ratio at 1 h,"[1]; Balb/c nu/nu, tumor and blood, PC-3 xenografts, read-out: Tumor-to-blood ratio, non-blocked group",30 ± 4
same,tissue to tissue ratio at 1 h,"[1]; Balb/c nu/nu, tumor and bone, PC-3 xenografts, read-out: Tumor-to-bone ratio, non-blocked group",78 ± 42
same,tissue to tissue ratio at 1 h,"[1]; Balb/c nu/nu, tumor and kidneys, PC-3 xenografts, read-out: Tumor-to-kidneys ratio, non-blocked group",1.3 ± 0.2
same,tissue to tissue ratio at 1 h,"[1]; Balb/c nu/nu, tumor and liver, PC-3 xenografts, read-out: Tumor-to-liver ratio, non-blocked group",2 ± 0.4
same,tissue to tissue ratio at 1 h,"[1]; Balb/c nu/nu, tumor and muscle, PC-3 xenografts, read-out: Tumor-to-muscle ratio, non-blocked group",125 ± 50
same,tissue to tissue ratio at 1 h,"[1]; Balb/c nu/nu, tumor and pancreas, PC-3 xenografts, read-out: Tumor-to-pancreas ratio, non-blocked group",1.1 ± 0.2
same,tissue to tissue ratio at 1 h,"[1]; Balb/c nu/nu, tumor and spleen, PC-3 xenografts, read-out: Tumor-to-spleen ratio, non-blocked group",51 ± 18
same,tissue uptake at 1 h,"[1]; Balb/c nu/nu, tumor, PC-3 xenografts, 40 pmol / 30 kBq co-injected with 5 nmol NOTA-PEG2-RM26, average ± SD, read-out: Uptake in tumor, blocked",0.89 ± 0.07 %ID/g
same,tissue uptake at 1 h,"[1]; blood, Balb/c nu/nu mice with PC-3 xenografts, 40 pmol / 30 kBq, kit stored 18 months, average ± SD, read-out: Uptake in blood, non-blocked",0.3 ± 0.2 %ID/g
same,tissue uptake at 1 h,"[1]; bone, Balb/c nu/nu mice with PC-3 xenografts, 40 pmol / 30 kBq, kit stored 18 months, average ± SD, read-out: Uptake in bone, non-blocked",0.09 ± 0.05 %ID/g
same,tissue uptake at 1 h,"[1]; kidneys, Balb/c nu/nu mice with PC-3 xenografts, 40 pmol / 30 kBq, kit stored 18 months, average ± SD, read-out: Uptake in kidneys, non-blocked",5 ± 0.4 %ID/g
same,tissue uptake at 1 h,"[1]; liver, Balb/c nu/nu mice with PC-3 xenografts, 40 pmol / 30 kBq, kit stored 18 months, average ± SD, read-out: Uptake in liver, non-blocked",2.9 ± 0.8 %ID/g
same,tissue uptake at 1 h,"[1]; muscle, Balb/c nu/nu mice with PC-3 xenografts, 40 pmol / 30 kBq, kit stored 18 months, average ± SD, read-out: Uptake in muscle, non-blocked",0.05 ± 0.02 %ID/g
same,tissue uptake at 1 h,"[1]; pancreas, Balb/c nu/nu mice with PC-3 xenografts, 40 pmol / 30 kBq, kit stored 18 months, average ± SD, read-out: Uptake in pancreas, non-blocked",6 ± 1 %ID/g
same,tissue uptake at 1 h,"[1]; spleen, Balb/c nu/nu mice with PC-3 xenografts, 40 pmol / 30 kBq, kit stored 18 months, average ± SD, read-out: Uptake in spleen, non-blocked",0.13 ± 0.05 %ID/g
same,tissue uptake at 1 h,"[1]; tumor, Balb/c nu/nu mice with PC-3 xenografts, 40 pmol / 30 kBq, kit stored 18 months, average ± SD, read-out: Uptake in tumor, non-blocked",6 ± 1 %ID/g
same,Difference in PC-3 tumor uptake between non-blocked and blocked groups,GRPR [2],6 fold
same,Difference in pancreatic uptake between non-blocked and blocked groups,GRPR [3],4 fold
same,"Cell-associated radioactivity, non-blocked versus pre-blocked receptors","GRPR on PC-3 cells; freshly prepared kit, 1 h at 37 °C, pre-blocking with 1 µM NOTA-PEG2-RM26, p < 0.0001, n = 3",significant difference
same,Binding to non-blocked GRPR versus pre-blocked GRPR on PC-3 cells,"GRPR on PC-3 cells; kit stored for 18 months, purified with Sep-Pak, pre-blocking with 1 µM NOTA-PEG2-RM26",significantly higher
same,Equilibrium dissociation constant,GRPR [4],low nanomolar range
same,Absorbed doses in healthy organs and tissues,[5],low absorbed doses
same,Tolerability of single injections,[5],well tolerated
